Measurements as given in patent US6242611A, “Phenylimidazolidines containing nitrooxy or carbonyloxy groups” (Hoechst Marion Roussel, priority 1995, dated 2001).

Columns and labels:
Androgen Receptor = target: T1, Androgen Receptor (Rattus norvegicus, UniProt P15207); test: Affinity for the androgen receptor (relative bond affinity, tritiated testosterone displacement, rat prostate cytosol); type: binding, Male Sprague Dawley EOPS rats
T1 construct: the prostates are removed, weighed and homogenized at 0° C; from tissue; host or cells: prostate cytosol of castrated male Sprague Dawley rats
T1 sequence (P15207 1-902): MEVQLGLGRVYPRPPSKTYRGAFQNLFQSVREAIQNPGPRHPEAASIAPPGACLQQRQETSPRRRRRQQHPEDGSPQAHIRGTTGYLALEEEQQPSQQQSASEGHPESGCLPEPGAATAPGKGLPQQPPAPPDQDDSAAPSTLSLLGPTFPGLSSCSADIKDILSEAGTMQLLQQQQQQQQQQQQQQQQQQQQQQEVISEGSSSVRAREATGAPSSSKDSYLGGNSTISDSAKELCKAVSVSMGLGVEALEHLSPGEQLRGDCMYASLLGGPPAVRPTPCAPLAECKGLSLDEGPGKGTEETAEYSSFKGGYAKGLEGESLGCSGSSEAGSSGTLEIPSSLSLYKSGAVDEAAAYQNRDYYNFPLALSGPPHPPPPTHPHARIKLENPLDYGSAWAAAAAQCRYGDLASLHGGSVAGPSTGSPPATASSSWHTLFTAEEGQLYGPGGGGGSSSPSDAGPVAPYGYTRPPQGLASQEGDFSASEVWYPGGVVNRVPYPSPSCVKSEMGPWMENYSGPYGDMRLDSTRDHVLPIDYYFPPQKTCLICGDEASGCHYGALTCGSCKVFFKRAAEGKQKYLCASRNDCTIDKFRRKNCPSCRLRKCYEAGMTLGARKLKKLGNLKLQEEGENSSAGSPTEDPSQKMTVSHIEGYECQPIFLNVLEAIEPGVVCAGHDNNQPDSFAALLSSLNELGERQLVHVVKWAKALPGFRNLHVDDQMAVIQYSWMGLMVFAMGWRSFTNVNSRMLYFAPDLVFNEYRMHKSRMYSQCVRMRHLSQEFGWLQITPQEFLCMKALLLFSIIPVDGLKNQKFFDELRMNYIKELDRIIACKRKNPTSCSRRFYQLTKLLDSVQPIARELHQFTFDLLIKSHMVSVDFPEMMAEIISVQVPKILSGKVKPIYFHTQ
Protocol: The homogenate is then ultracentrifuged at 0° C., for 30 minutes at 209,000 g.

[1] = system: Costo-vertebral Gland of the Hamster; test: Reducing effect on the costo-vertebral gland of the hamster (local topical antiandrogen activity); type: in vivo, male hamsters (Charles River breed); details: 3 weeks (14 administrations), surface area of C.V.G., male hamsters, compared to animals treated with solvent only
Protocol: The local activity (topical) of an antiandrogen is determined by the reduction which it produces in the surface area of the costovertebral gland of the hamster (hereafter C.V.G.), an androgen-dependent organ situated on the sides of the animal.
The animals are male hamsters weighing approximately 140 g, 14 weeks old and originating from the Charles Riverbreed (USA), they are subjected to a long photoperiod (16 hours of light, 8 hours of darkness). The animals are treated every day, except for the weekend, for 3 weeks (14 administrations). The product to be tested is applied, by topical route, to the right-hand G.C.V., the left-hand one serving as the control, the surface of the gland having been shaved beforehand. The animals are sacrificed by bleeding the carotid artery 24 hours after the last treatment. The C.V.G.'s are removed, measured and weighed. The local activity of a product is determined by the % reduction in the surface area of the C.V.G. which it induces in comparison with the 1st of day the experiment and compared to the animals treated with solvent only.

[2] = system: Prostate in an Intact Male Rat; test: Reducing effect in the weight of the prostate in an intact male rat (systemic antiandrogen activity); type: in vivo, male rats of the Sprague Dawley strain; details: day 0 to day 4 then day 7 to day 10, intact male rats, compared to animals treated with solvent only
Protocol: The experiment is carried out over two weeks, except for the weekend.
The product can be administered by oral, sub-cutaneous or percutaneous route.
The treatment is carried out from day 0 to day 4 then (after the weekend) from day 7 to day 10. The animals are sacrificed the day after the last treatment by bleeding the carotid artery, the prostates are removed and fixed in demineralized water containing 10% formol for 72 hours. They are then dissected and weighed.

SMILES: CC(C)OC(=O)OCCCCN1C(=O)N(c2ccc(C#N)c(C(F)(F)F)c2)C(=O)C1(C)C [Example 1, 4-(3-(4-cyano-3-(trifluoromethyl)-phenyl)-5,5-dimethyl-2,4-dioxo-1-imidazolidinyl)butyl and 1-methylethyl carbonate]
- RBA: Incubation for 24 hours (Androgen Receptor): 19
- % CVG reduction with 3 μg/jour [1]: -32%
- % reduction in the prostate weight with 3 mg/kg P.O. [2]: -5%
